This is an account of results in patent US20140315889A1, “HYDROXAMATE DERIVATIVES FOR HDAC INHIBITOR, AND THE PHARMACEUTICAL COMPOSITION COMPRISING THEREOF” (CHONG KUN DANG PHARMACEUTICAL CORP., priority 2011, published 2014).

Structures are written as SMILES.

The target in experiment [1] is T1, human recombinant HDAC6 (Homo sapiens, UniProt Q9UBN7).
T1 construct: purchased Calibiochem Co. (so in the source) 382180
T1 sequence (Q9UBN7 1-1215): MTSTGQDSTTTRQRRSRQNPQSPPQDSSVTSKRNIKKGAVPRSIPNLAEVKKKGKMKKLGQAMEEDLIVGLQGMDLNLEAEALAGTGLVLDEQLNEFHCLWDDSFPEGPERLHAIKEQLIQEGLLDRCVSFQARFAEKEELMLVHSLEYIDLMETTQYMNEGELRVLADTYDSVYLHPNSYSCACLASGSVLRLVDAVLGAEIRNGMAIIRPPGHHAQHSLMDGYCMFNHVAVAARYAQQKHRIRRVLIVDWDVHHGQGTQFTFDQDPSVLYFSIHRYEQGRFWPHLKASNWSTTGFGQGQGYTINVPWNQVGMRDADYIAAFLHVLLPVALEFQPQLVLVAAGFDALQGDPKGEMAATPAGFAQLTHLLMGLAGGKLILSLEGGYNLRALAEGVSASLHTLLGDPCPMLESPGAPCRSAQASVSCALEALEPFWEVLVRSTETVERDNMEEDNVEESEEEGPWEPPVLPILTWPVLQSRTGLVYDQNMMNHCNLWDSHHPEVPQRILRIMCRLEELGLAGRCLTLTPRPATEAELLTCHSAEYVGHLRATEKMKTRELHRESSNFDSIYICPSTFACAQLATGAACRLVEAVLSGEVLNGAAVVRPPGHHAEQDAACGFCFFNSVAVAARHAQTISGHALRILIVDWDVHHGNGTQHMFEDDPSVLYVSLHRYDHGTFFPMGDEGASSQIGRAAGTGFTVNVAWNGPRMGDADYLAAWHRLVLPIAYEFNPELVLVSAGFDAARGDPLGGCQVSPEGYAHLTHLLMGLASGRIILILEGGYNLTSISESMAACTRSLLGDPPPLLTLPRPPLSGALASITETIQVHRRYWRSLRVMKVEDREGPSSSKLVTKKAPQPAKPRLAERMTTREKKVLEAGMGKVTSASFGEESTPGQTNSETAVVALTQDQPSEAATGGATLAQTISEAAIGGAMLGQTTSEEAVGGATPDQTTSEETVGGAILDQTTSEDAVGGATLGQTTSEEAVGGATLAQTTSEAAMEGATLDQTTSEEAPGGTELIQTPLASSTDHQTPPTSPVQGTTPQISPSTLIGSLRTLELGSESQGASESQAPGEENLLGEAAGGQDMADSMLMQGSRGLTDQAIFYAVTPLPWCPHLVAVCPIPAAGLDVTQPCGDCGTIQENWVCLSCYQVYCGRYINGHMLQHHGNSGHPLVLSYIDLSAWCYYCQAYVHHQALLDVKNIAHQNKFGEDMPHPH
The experiment can be described thus: HDAC enzyme activity test, HDAC6. The format is biochemical. The conditions noted are these: Table 12; for Selectivity for HDAC6, HD1/HD6: ratio HDAC1 IC50 / HDAC6 IC50; for IC50: read-out: Inhibition ability (IC50) HDAC6. The protocol: (§1) Then, 0.3 μg of enzyme and 10 μM of substrate per well were added, reacted at 30° C. for 60 minutes. Thereto, Fluor de Lys® Developer II (BML-KI176) was added and reacted for 30 minutes. […] From the data, the respective IC50 were calculated by GraphPad Prism 4.0 program.

In experiment [2] the target is T2, Human recombinant HDAC1 (Homo sapiens, UniProt Q13547).
T2 construct: purchased Enzo Life Science Co. (named for the kit; assigned to the enzyme from the BML- catalogue prefix) BML-SE456
T2 sequence (Q13547 whole entry): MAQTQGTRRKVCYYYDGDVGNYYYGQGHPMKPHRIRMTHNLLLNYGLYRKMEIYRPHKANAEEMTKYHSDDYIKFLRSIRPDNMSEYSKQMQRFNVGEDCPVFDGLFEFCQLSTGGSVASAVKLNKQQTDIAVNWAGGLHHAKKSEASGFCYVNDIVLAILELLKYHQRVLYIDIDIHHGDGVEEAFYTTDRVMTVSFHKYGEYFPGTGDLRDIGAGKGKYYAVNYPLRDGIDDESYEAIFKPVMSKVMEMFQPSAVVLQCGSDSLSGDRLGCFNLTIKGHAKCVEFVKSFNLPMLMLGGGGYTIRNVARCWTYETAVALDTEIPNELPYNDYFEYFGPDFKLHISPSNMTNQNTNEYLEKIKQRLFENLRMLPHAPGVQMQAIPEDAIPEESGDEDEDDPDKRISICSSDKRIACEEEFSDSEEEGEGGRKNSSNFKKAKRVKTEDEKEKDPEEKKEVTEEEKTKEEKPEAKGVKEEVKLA
The experiment can be described thus: HDAC enzyme activity test, HDAC1. Format: biochemical. The conditions noted are these: Table 12; read-out: Inhibition ability (IC50) HDAC1. The protocol:
as §1

Turning to `CC(C)(C)OC(=O)N1CCN(CC2CCc3c(c4ccccc4n3Cc3ccc(C(=O)NO)cc3)C2=O)CC1` (stereo not drawn) [Compound 140, tert-butyl 4-((9-(4-(hydroxycarbamoyl)benzyl)-4-oxo-2,3,4,9-tetrahydro-1H-carbazol-3-yl)methyl)piperazine-1-carboxylate], the “Selectivity for HDAC6, HD1/HD6” value in experiment [1] is on record as 325.2. Also, the IC50 in experiment [1] came to 0.0181 µM; in experiment [2], 5.9 µM.

For `O=C(NO)c1ccc(Cn2c3c(c4cc(F)ccc42)C(=O)C(CN2CCOCC2)CC3)cc1` (stereo not drawn) [Compound 141, 4-((6-fluoro-3-(morpholinomethyl)-4-oxo-1,2,3,4-tetrahydrocarbazol-9-yl)methyl)-N-hydroxybenzamide], in experiment [1], the “Selectivity for HDAC6, HD1/HD6” value worked out at 850.7 and the IC50 was found to be 0.0049 µM. Further, the IC50 in experiment [2] was 4.14 µM.

As for `CC(C)(C)OC(=O)N1CCN(CC2CCc3c(c4cc(F)ccc4n3Cc3ccc(C(=O)NO)cc3)C2=O)CC1` (stereo not drawn) [Compound 144, tert-butyl 4-((6-fluoro-9-(4-(hydroxycarbamoyl)benzyl)-4-oxo-2,3,4,9-tetrahydro-1H-carbazol-3-yl)methyl)piperazin-1-carboxylate], the “Selectivity for HDAC6, HD1/HD6” value in experiment [1] worked out at 310.9. Further, the IC50 in experiment [1] was determined as 0.0271 µM; in experiment [2], 8.41 µM.

Consider `O=C(NO)c1ccc(Cn2c3c(c4cc(F)ccc42)C(=O)C(CN2CC(F)(F)C2)CC3)cc1` (stereo not drawn) [Compound 145, 4-((3-((3,3-difluoroazetidin-1-yl)methyl)-6-fluoro-4-oxo-1,2,3,4-tetrahydrocarbazol-9-yl)methyl)-N-hydroxybenzamide], for which the “Selectivity for HDAC6, HD1/HD6” value in experiment [1] was found to be 925.1. The half-inhibitory concentration (IC50) in experiment [1] stood at 0.0078 µM; in experiment [2], 7.23 µM.

For the compound `O=C(NO)c1ccc(Cn2c3c(c4ccccc42)C(=O)C(CN2CCN(C(=O)C4CC4)CC2)CC3)cc1` (stereo not drawn) [Compound 156, 4-((3-((4-(cyclopropancarbonyl)piperazin-1-yl)methyl)-4-oxo-1,2,3,4-tetrahydrocarbazol-9-yl)methyl)-N-hydroxybenzamide], in experiment [1], the “Selectivity for HDAC6, HD1/HD6” value worked out at 424.8. Further, the 50% inhibitory concentration (IC50) was determined as 0.0151 µM in experiment [1] and 6.4 µM in experiment [2].

With `O=C(NO)c1ccc(Cn2c3c(c4cc(F)ccc42)C(=O)CCC3)cc1` [Compound 157, 4-((3-fluoro-5-oxo-5,6,7,8-tetrahydrocarbazol-9-yl)methyl)-N-hydroxybenzamide], in experiment [1], the “Selectivity for HDAC6, HD1/HD6” value is 326.2. In addition, the IC50 is 0.0111 µM in experiment [1] and 3.61 µM in experiment [2].

For the compound `Cc1nccn1CC1CCc2c(c3cc(F)ccc3n2Cc2ccc(C(=O)NO)cc2)C1=O` (stereo not drawn) [Compound 158, 4-((6-fluoro-3-((2-methyl-1H-imidazol-1-yl)methyl)-4-oxo-1,2,3,4-tetrahydrocarbazol-9-yl)methyl)-N-hydroxybenzamide], in experiment [1], the “Selectivity for HDAC6, HD1/HD6” value came to 602.7. The IC50 in experiment [1] was found to be 0.00852 µM; in experiment [2], 5.14 µM.

In the case of `O=C(NO)c1ccc(Cn2c3ccccc3c3c(=O)[nH]cnc32)cc1` [Compound 179, N-hydroxy-4-((4-oxo-3,4-dihydropyrimido[4,5-b]indol-9-yl)methyl)benzamide], in experiment [1], the “Selectivity for HDAC6, HD1/HD6” value came to 43.693 and the IC50 amounted to 0.00352 µM. For the same compound, the half-inhibitory concentration (IC50) in experiment [2] was 0.154 µM.

On to `CC(C)N1CCN(CC2CCc3c(c4cc(F)ccc4n3Cc3ccc(C(=O)NO)cc3)C2=O)CC1` (stereo not drawn) [Compound 188, 4-((6-fluoro-3-((4-isopropylpiperazin-1-yl)methyl)-4-oxo-1,2,3,4-tetrahydrocarbazol-9-yl)methyl)-N-hydroxybenzamide], for which, in experiment [1], the “Selectivity for HDAC6, HD1/HD6” value stood at 49.9 and the IC50 was 0.0453 µM. Further, the half-maximal inhibitory concentration (IC50) in experiment [2] turned out to be 2.26 µM.

Turning to `CCN1CCN(CC2CCc3c(c4cc(F)ccc4n3Cc3ccc(C(=O)NO)cc3)C2=O)CC1` (stereo not drawn) [Compound 189, 4-((3-((4-ethylpiperazin-1-yl)methyl)-6-fluoro-4-oxo-1,2,3,4-tetrahydrocarbazol-9-yl)methyl)-N-hydroxybenzamide], in experiment [1], the “Selectivity for HDAC6, HD1/HD6” value is recorded as 193.5 and the IC50 amounted to 0.0115 µM. The IC50 in experiment [2] came out at 2.23 µM.

Usually IC50 stands for the concentration that gives 50% inhibition.
